Test results taken from EPA's CvTdb concentration-time database.

Legend:
Rat [1] = assay: concentration in kidney after dosing; conditions: 864 h; dosed: Perfluorooctane Sulfonate; 2 mg/kg; oral; Female; Harlan Sprague Dawley
Rat [2] = assay: concentration in liver after dosing; conditions: 864 h; dosed: Perfluorooctane Sulfonate; 20 mg/kg; oral; Male; Harlan Sprague Dawley
Rat [3] = assay: concentration in liver after dosing; conditions: 24 h; dosed: Perfluorooctane Sulfonate; 2 mg/kg; oral; Female; Harlan Sprague Dawley
Rat [4] = assay: concentration in plasma after dosing; conditions: dosed: Perfluorooctane Sulfonate, 2 mg/kg, iv, Female, F344
Rat [5] = assay: concentration in plasma after dosing; conditions: dosed: Perfluorooctane Sulfonate, 2 mg/kg, iv, Male, F344
Rat [6] = assay: concentration in plasma after dosing; conditions: 864 h; dosed: Perfluorooctane Sulfonate; 2 mg/kg; oral; Female; Harlan Sprague Dawley
Rat [7] = assay: concentration in plasma after dosing; conditions: 1 h; dosed: Gemfibrozil; 4.29 mg/kg; oral; Male; Sprague-Dawley
Rat [8] = assay: concentration in plasma after dosing; conditions: 10 min; dosed: Gemfibrozil; 100 mg/kg; oral; Male; Sprague-Dawley
Rat [9] = assay: concentration in plasma after dosing; conditions: 24 h; dosed: Gemfibrozil; 50 mg/kg; oral; Male; Sprague-Dawley
Rat [10] = assay: concentration in plasma after dosing; conditions: 4 h; dosed: Gemfibrozil; 50 mg/kg; oral; Male; Sprague-Dawley
Rat [11] = assay: concentration in plasma after dosing; conditions: 6 h; dosed: Gemfibrozil; 50 mg/kg; oral; Male; Sprague-Dawley
Rat [12] = assay: concentration in plasma after dosing; conditions: 10 min; dosed: Gemfibrozil; 100 mg/kg; oral; Male; Sprague-Dawley; remark: listed apart in the source
Rat [13] = assay: concentration in plasma after dosing; conditions: 10 h; dosed: Gemfibrozil; 50 mg/kg; oral; Male; Sprague-Dawley
Rat [14] = assay: concentration in plasma after dosing; conditions: 1 h; dosed: Gemfibrozil; 4.29 mg/kg; oral; Male; Sprague-Dawley; remark: listed apart in the source
Rat [15] = assay: concentration in plasma after dosing; conditions: 0.5 h; dosed: Gemfibrozil; 4.29 mg/kg; oral; Male; Sprague-Dawley
Rat [16] = assay: concentration in liver after dosing; conditions: 0.5 h; dosed: Perfluorohexanoic Acid; 80 mg/kg; oral; Male; Harlan Sprague Dawley
Rat [17] = assay: concentration in plasma after dosing; conditions: 1.5 h; dosed: Perfluorohexanoic Acid; 40 mg/kg; iv; Male; F344
Rat [18] = assay: concentration in plasma after dosing; conditions: 1 h; dosed: Perfluorohexanoic Acid; 40 mg/kg; iv; Male; F344

Q: Which concentration in kidney (Rat [1]) does the source give for `O=S(=O)([O-])C(F)(F)C(F)(F)C(F)(F)C(F)(F)C(F)(F)C(F)(F)C(F)(F)C(F)(F)F` [Perfluorooctane Sulfonate] here?
A: Its concentration in kidney is 1390 ng/g.

Q: What about the concentration in liver (Rat [2]) of the same compound?
A: The concentration in liver was 98700 ng/g.

Q: And the concentration in liver (Rat [3])?
A: Its concentration in liver is 22900 ng/g.

Q: What about the concentration in plasma (Rat [4]; 5 min) of the same compound?
A: Its concentration in plasma is 5510 ng/mL.

Q: And the concentration in plasma (Rat [4]; 24 h)?
A: Its concentration in plasma is 4250 ng/mL.

Q: And the concentration in plasma (Rat [4]; 1704 h)?
A: The concentration in plasma was 232 ng/mL.

Q: What about the concentration in plasma (Rat [5]; 6 h) of the same compound?
A: The concentration in plasma was 4060 ng/mL.

Q: And the concentration in plasma (Rat [5]; 528 h)?
A: Its concentration in plasma is 1840 ng/mL.

Q: What about the concentration in plasma (Rat [5]; 3216 h) of the same compound?
A: The concentration in plasma was 96.4 ng/mL.

Q: What about the concentration in plasma (Rat [6]) of the same compound?
A: The concentration in plasma was 1480 ng/mL.

Q: Which results are given for `Cc1ccc(C)c(OCCCC(C)(C)C(=O)O)c1` [Gemfibrozil]?
A: concentration in plasma (Rat [7]): 258 ng/mL; concentration in plasma (Rat [8]): 130000 ng/mL; concentration in plasma (Rat [9]): 846 ng/mL; concentration in plasma (Rat [10]): 2860 ng/mL; concentration in plasma (Rat [11]): 7260 ng/mL; concentration in plasma (Rat [12]): 50400 ng/mL; concentration in plasma (Rat [13]): 1930 ng/mL; concentration in plasma (Rat [14]): 142 ng/mL; concentration in plasma (Rat [15]): 424 ng/mL

Q: What does the source list for `O=C(O)C(F)(F)C(F)(F)C(F)(F)C(F)(F)C(F)(F)F` [Perfluorohexanoic Acid]?
A: concentration in liver (Rat [16]): 67900 ng/g; concentration in plasma (Rat [17]): 8490 ng/mL; concentration in plasma (Rat [18]): 20100 ng/mL
